Source: patent US8431593B2, “Heteroaryl amide derivatives” (H. Lundbeck A/S, priority 2006, dated 2013)
Like-named read-outs stand apart in the source and are kept apart here.

Molecular target: T1, P2X7 receptor (Homo sapiens, UniProt Q99572)
T1 construct: host or cells: SH-SY5Y
T1 sequence (Q99572 1-595): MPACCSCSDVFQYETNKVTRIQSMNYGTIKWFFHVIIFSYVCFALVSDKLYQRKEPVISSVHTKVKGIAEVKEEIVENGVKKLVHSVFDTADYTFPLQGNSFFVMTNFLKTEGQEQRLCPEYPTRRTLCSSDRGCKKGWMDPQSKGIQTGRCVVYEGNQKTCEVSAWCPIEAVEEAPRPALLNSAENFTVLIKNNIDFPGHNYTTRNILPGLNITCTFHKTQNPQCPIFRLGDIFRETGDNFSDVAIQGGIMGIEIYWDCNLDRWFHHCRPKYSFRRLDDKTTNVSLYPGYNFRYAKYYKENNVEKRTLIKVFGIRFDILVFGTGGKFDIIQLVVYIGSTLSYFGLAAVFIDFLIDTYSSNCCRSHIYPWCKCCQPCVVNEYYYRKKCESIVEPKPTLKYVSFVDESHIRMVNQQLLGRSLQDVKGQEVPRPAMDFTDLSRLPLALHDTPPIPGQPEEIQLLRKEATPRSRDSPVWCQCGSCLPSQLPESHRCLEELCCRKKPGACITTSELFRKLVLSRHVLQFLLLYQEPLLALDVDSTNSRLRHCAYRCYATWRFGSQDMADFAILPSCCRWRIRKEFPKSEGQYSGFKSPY
Assay: P2X7 calcium mobilization assay, high throughput, antagonist activity (Example 4A)
Assay type: cell-based
Outline: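 Cells plated at 100,000/well the day before were dye-loaded for 1 h, then incubated 1 h at room temperature with test compound before agonist-triggered calcium mobilization was read on FLIPR Tetra. Maximum RFU was corrected by subtracting the no-agonist control and related to the agonist-control response.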

[1] = SH-SY5Y cells, 50% decrease in fluorescence response to 80 μM BzATP, read-out: IC50

Structure (SMILES) | IC50 [1] [nM] | IC50 [nM]
CCC(C)NC(=O)Cc1cn2c(C(=O)NCC34CC5CC(CC(C5)C3)C4)cccc2n1 (stereo not drawn) [Compound 152, N-(adamantan-1-ylmethyl)-2-[2-(sec-butylamino)-2-oxoethyl]imidazo[1,2-a]pyridine-5-carboxamide] | < 2000 | –
O=C(Cc1cn2c(C(=O)NCC34CC5CC(CC(C5)C3)C4)cccc2n1)NC1CCCC1 [Compound 153, N-(adamantan-1-ylmethyl)-2-[2-(cyclopentylamino)-2-oxoethyl]imidazo[1,2-a]pyridine-5-carboxamide] | < 2000 | –
CC(C)(C)CNC(=O)Cc1cn2c(C(=O)NCC34CC5CC(CC(C5)C3)C4)cccc2n1 [Compound 154, N-(adamantan-1-ylmethyl)-2-{2-[(2,2-dimethylpropyl)amino]-2-oxoethyl}imidazo[1,2-a]pyridine-5-carboxamide] | < 2000 | –
CCOCCNC(=O)Cc1cn2c(C(=O)NCC34CC5CC(CC(C5)C3)C4)cccc2n1 [Compound 155, N-(adamantan-1-ylmethyl)-2-{2-[(2-ethoxyethyl)amino]-2-oxoethyl}imidazo[1,2-a]pyridine-5-carboxamide] | < 2000 | –
CC(C)OCCNC(=O)Cc1cn2c(C(=O)NCC34CC5CC(CC(C5)C3)C4)cccc2n1 [Compound 156, N-(adamantan-1-ylmethyl)-2-{2-[(2-isopropoxyethyl)amino]-2-oxoethyl}imidazo[1,2-a]pyridine-5-carboxamide] | < 2000 | –
O=C(Cc1cn2c(C(=O)NCC34CC5CC(CC(C5)C3)C4)cccc2n1)NCC1CCCO1 (stereo not drawn) [Compound 157, N-(adamantan-1-ylmethyl)-2-{2-oxo-2-[(tetrahydrofuran-2-ylmethyl)amino]ethyl}imi-dazo[1,2-a]pyridine-5-carboxamide] | – | < 2000
O=C(Cc1cn2c(C(=O)NCC34CC5CC(CC(C5)C3)C4)cccc2n1)NCC(F)(F)F [Compound 158, N-(adamantan-1-ylmethyl)-2-{2-oxo-2-[(2,2,2-trifluoroethyl)amino]eth-yl}imidazo[1,2-a]pyridine-5-carboxamide] | < 2000 | –
CCCOCCNC(=O)Cc1cn2c(C(=O)NCC34CC5CC(CC(C5)C3)C4)cccc2n1 [Compound 159, N-(adamantan-1-ylmethyl)-2-{2-oxo-2-[(2-propoxyethyl)amino]eth-yl}imidazo[1,2-a]pyridine-5-carboxamide] | < 2000 | –
CCC(COC)NC(=O)Cc1cn2c(C(=O)NCC34CC5CC(CC(C5)C3)C4)cccc2n1 (stereo not drawn) [Compound 160, N-(adamantan-1-ylmethyl)-2-(2-{[1-(methoxymethyl)pro-pyl]amino}-2-oxoethyl)imidazo[1,2-a]pyridine-5-carboxamide] | < 2000 | –
NC(=O)[C@H]1CCC[C@H]1NC(=O)Cc1cn2c(C(=O)NCC34CC5CC(CC(C5)C3)C4)cccc2n1 [Compound 161, N-(adamantan-1-ylmethyl)-2-(2-{[(1R,2S)-2-carbamoylcyclo-pentyl]amino}-2-oxoethyl)imidazo[1,2-a]pyridine-5-carboxamide] | < 2000 | –
O=C(Cc1cn2c(C(=O)NCC34CC5CC(CC(C5)C3)C4)cccc2n1)NN1CCOCC1 [Compound 162, N-(adamantan-1-ylmethyl)-2-[2-(morpholin-4-ylamino)-2-oxoethyl]imidazo[1,2-a]pyridine-5-carboxamide] | < 2000 | –
O=C(Cc1cn2c(C(=O)NCC34CC5CC(CC(C5)C3)C4)cccc2n1)NN1CCCCCC1 [Compound 163, N-(adamantan-1-ylmethyl)-2-[2-(azepan-1-ylamino)-2-oxoethyl]imidazo[1,2-a]pyridine-5-carboxamide] | < 2000 | –
CC(C)N1CCN(C(=O)Cc2cn3c(C(=O)NCC45CC6CC(CC(C6)C4)C5)cccc3n2)CC1 [Compound 164, N-(adamantan-1-ylmethyl)-2-[2-(4-isopropylpiperazin-1-yl)-2-oxoethyl]imidazo[1,2-a]pyridine-5-carboxamide] | < 2000 | –
CN(C)C(=O)Cc1cn2c(C(=O)NCC34CC5CC(CC(C5)C3)C4)cccc2n1 [Compound 165, N-(adamantan-1-ylmethyl)-2-[2-(dimethylamino)-2-oxoethyl]imidazo[1,2-a]pyridine-5-carboxamide] | < 2000 | –
CC(=O)N1CCN(C(=O)Cc2cn3c(C(=O)NCC45CC6CC(CC(C6)C4)C5)cccc3n2)CC1 [Compound 166, 2-[2-(4-acetylpiperazin-1-yl)-2-oxoethyl]-N-(adamantan-1-ylmethyl)imidazo[1,2-a]pyridine-5-carboxamide] | < 2000 | –
O=CN1CCN(C(=O)Cc2cn3c(C(=O)NCC45CC6CC(CC(C6)C4)C5)cccc3n2)CC1 [Compound 167, N-(adamantan-1-ylmethyl)-2-[2-(4-formylpiperazin-1-yl)-2-oxoethyl]imidazo[1,2-a]pyridine-5-carboxamide] | < 2000 | –
CCN(C)C(=O)Cc1cn2c(C(=O)NCC34CC5CC(CC(C5)C3)C4)cccc2n1 [Compound 168, N-(adamantan-1-ylmethyl)-2-{2-[ethyl(methyl)amino]-2-oxoethyl}imidazo[1,2-a]pyridine-5-carboxamide] | < 2000 | –
CCN1CCN(C(=O)Cc2cn3c(C(=O)NCC45CC6CC(CC(C6)C4)C5)cccc3n2)CC1 [Compound 169, N-(adamantan-1-ylmethyl)-2-[2-(4-ethylpiperazin-1-yl)-2-oxoethyl]imidazo[1,2-a]pyridine-5-carboxamide] | < 2000 | –
CC(=O)NC1CCN(C(=O)Cc2cn3c(C(=O)NCC45CC6CC(CC(C6)C4)C5)cccc3n2)C1 (stereo not drawn) [Compound 170, 2-[2-(3-acetamidopyrrolidin-1-yl)-2-oxoethyl]-N-(adamantan-1-ylmethyl)imidazo[1,2-a]pyridine-5-carboxamide] | < 2000 | –
COC[C@@H]1CCCN1C(=O)Cc1cn2c(C(=O)NCC34CC5CC(CC(C5)C3)C4)cccc2n1 [Compound 171, N-(adamantan-1-ylmethyl)-2-{2-[(2S)-2-(methoxymethyl)pyrrolidin-1-yl]-2-oxoethyl}imidazo[1,2-a]pyridine-5-carboxamide] | < 2000 | –
COC[C@H]1CCCN1C(=O)Cc1cn2c(C(=O)NCC34CC5CC(CC(C5)C3)C4)cccc2n1 [Compound 172, N-(adamantan-1-ylmethyl)-2-{2-[(2R)-2-(methoxymethyl)pyrrolidin-1-yl]-2-oxoethyl}imidazo[1,2-a]pyridine-5-carboxamide] | < 2000 | –
CC(C)CN(C)C(=O)Cc1cn2c(C(=O)NCC34CC5CC(CC(C5)C3)C4)cccc2n1 [Compound 173, N-(adamantan-1-ylmethyl)-2-{2-[isobutyl(methyl)amino]-2-oxoethyl}imidazo[1,2-a]pyridine-5-carboxamide] | < 2000 | –
O=C(NCC12CC3CC(CC(C3)C1)C2)c1cccc2nc(CC(=O)N3CCCC(C(F)(F)F)C3)cn12 (stereo not drawn) [Compound 174, N-(adamantan-1-ylmethyl)-2-{2-oxo-2-[3-(trifluoromethyl)piperidin-1-yl]ethyl}imidazo[1,2-a]pyridine-5-carboxamide] | < 2000 | –
CO[C@H]1CCN(C(=O)Cc2cn3c(C(=O)NCC45CC6CC(CC(C6)C4)C5)cccc3n2)C1 [Compound 175, N-(adamantan-1-ylmethyl)-2-{2-[(3S)-3-methoxypyrrolidin-1-yl]-2-oxoethyl}imidazo[1,2-a]pyridine-5-carboxamide] | < 2000 | –
COCC1CCCN(C(=O)Cc2cn3c(C(=O)NCC45CC6CC(CC(C6)C4)C5)cccc3n2)C1 (stereo not drawn) [Compound 176, N-(adamantan-1-ylmethyl)-2-{2-[3-(methoxymethyl)piperidin-1-yl]-2-oxoethyl}imidazo[1,2-a]pyridine-5-carboxamide] | < 2000 | –
COCC1CCCCN1C(=O)Cc1cn2c(C(=O)NCC34CC5CC(CC(C5)C3)C4)cccc2n1 (stereo not drawn) [Compound 177, N-(adamantan-1-ylmethyl)-2-{2-[2-(methoxymethyl)piperidin-1-yl]-2-oxoethyl}imidazo[1,2-a]pyridine-5-carboxamide] | < 2000 | –
COCCC1CCCN(C(=O)Cc2cn3c(C(=O)NCC45CC6CC(CC(C6)C4)C5)cccc3n2)C1 (stereo not drawn) [Compound 178, N-(adamantan-1-ylmethyl)-2-{2-[3-(2-methoxyethyl)piperidin-1-yl]-2-oxoethyl}imidazo[1,2-a]pyridine-5-carboxamide] | < 2000 | –
O=C(NCC12CC3CC(CC(C3)C1)C2)c1cccc2nc(CC(=O)N3CCN(C4CCC4)CC3)cn12 [Compound 179, N-(adamantan-1-ylmethyl)-2-[2-(4-cyclobutylpiperazin-1-yl)-2-oxoethyl]imidazo[1,2-a]pyridine-5-carboxamide] | < 2000 | –
O=C(NCC12CC3CC(CC(C3)C1)C2)c1cccc2nc(CC(=O)N3CCCC3)cn12 [Compound 180, N-(adamantan-1-ylmethyl)-2-(2-oxo-2-pyrrolidin-1-ylethyl)imidazo[1,2-a]pyridine-5-carboxamide] | < 2000 | –
O=C(NCC12CC3CC(CC(C3)C1)C2)c1cccc2nc(CC(=O)N3CCCCC3)cn12 [Compound 181, N-(adamantan-1-ylmethyl)-2-(2-oxo-2-piperidin-1-ylethyl)imidazo[1,2-a]pyridine-5-carboxamide] | < 2000 | –
